According to ChEMBL document CHEMBL2429768, “Eco-friendly synthesis and antimicrobial activities of substituted-5-(1H-indol-3-yl)methylene)-2,2-dimethyl-1,3-dioxane-4,6-dione derivatives” (2013):
Values after ≈ are worked out from the molar mass of the structure shown.

Experiments:
Format in all cases: functional
Bacillus subtilis [1] = assay: Antibacterial activity against Bacillus subtilis at 500 ug/ml after 24 hrs by agar well diffusion method; conditions: read-out: DIZ
Escherichia coli [2] = assay: Antibacterial activity against Escherichia coli ATCC 8739 at 100 ug/ml after 24 hrs by agar well diffusion method; conditions: ATCC 8739, 24 h, read-out: DIZ
Escherichia coli [3] = assay: Antibacterial activity against Escherichia coli ATCC 8739 at 50 ug/ml after 24 hrs by agar well diffusion method; conditions: ATCC 8739, 24 h, read-out: DIZ
Fusarium oxysporum [4] = assay: Antifungal activity against Fusarium oxysporum at 500 ug/ml after 72 hrs by agar well diffusion method; conditions: read-out: DIZ
Bacillus subtilis [5] = assay: Antibacterial activity against Bacillus subtilis at 100 ug/ml after 24 hrs by agar well diffusion method; conditions: read-out: DIZ
Aspergillus niger [6] = assay: Antifungal activity against Aspergillus niger at 200 ug/ml after 72 hrs by agar well diffusion method; conditions: read-out: DIZ
Aspergillus niger [7] = assay: Antifungal activity against Aspergillus niger at 300 ug/ml after 72 hrs by agar well diffusion method; conditions: read-out: DIZ
Aspergillus niger [8] = assay: Antifungal activity against Aspergillus niger at 50 ug/ml after 72 hrs by agar well diffusion method; conditions: read-out: DIZ
Staphylococcus aureus [9] = assay: Antibacterial activity against Staphylococcus aureus ATCC 6538 at 200 ug/ml after 24 hrs by agar well diffusion method; conditions: ATCC 6538, 24 h, read-out: DIZ
Aspergillus flavus [10] = assay: Antifungal activity against Aspergillus flavus at 100 ug/ml after 72 hrs by agar well diffusion method; conditions: read-out: DIZ
Escherichia coli [11] = assay: Antibacterial activity against Escherichia coli ATCC 8739 after 24 hrs by agar well diffusion method; conditions: ATCC 8739, 24 h
Rhizoctonia solani [12] = assay: Antifungal activity against Rhizoctonia solani after 72 hrs by agar well diffusion method
Fusarium oxysporum [13] = assay: Antifungal activity against Fusarium oxysporum at 50 ug/ml after 72 hrs by agar well diffusion method; conditions: read-out: DIZ
Staphylococcus aureus [14] = assay: Antibacterial activity against Staphylococcus aureus ATCC 6538 at 300 ug/ml after 24 hrs by agar well diffusion method; conditions: ATCC 6538, 24 h, read-out: DIZ
Escherichia coli [15] = assay: Antibacterial activity against Escherichia coli ATCC 8739 at 200 ug/ml after 24 hrs by agar well diffusion method; conditions: ATCC 8739, 24 h, read-out: DIZ
Staphylococcus aureus [16] = assay: Antibacterial activity against Staphylococcus aureus ATCC 6538 at 50 ug/ml after 24 hrs by agar well diffusion method; conditions: ATCC 6538, 24 h, read-out: DIZ
Rhizoctonia solani [17] = assay: Antifungal activity against Rhizoctonia solani at 300 ug/ml after 72 hrs by agar well diffusion method; conditions: read-out: DIZ
Escherichia coli [18] = assay: Antibacterial activity against Escherichia coli ATCC 8739 at 300 ug/ml after 24 hrs by agar well diffusion method; conditions: ATCC 8739, 24 h, read-out: DIZ
Fusarium oxysporum [19] = assay: Antifungal activity against Fusarium oxysporum at 200 ug/ml after 72 hrs by agar well diffusion method; conditions: read-out: DIZ
Aspergillus flavus [20] = assay: Antifungal activity against Aspergillus flavus at 50 ug/ml after 72 hrs by agar well diffusion method; conditions: read-out: DIZ
Fusarium oxysporum [21] = assay: Antifungal activity against Fusarium oxysporum after 72 hrs by agar well diffusion method
Klebsiella pneumoniae [22] = assay: Antibacterial activity against Klebsiella pneumoniae at 300 ug/ml after 24 hrs by agar well diffusion method; conditions: read-out: DIZ
Fusarium oxysporum [23] = assay: Antifungal activity against Fusarium oxysporum at 100 ug/ml after 72 hrs by agar well diffusion method; conditions: read-out: DIZ
Aspergillus niger [24] = assay: Antifungal activity against Aspergillus niger at 500 ug/ml after 72 hrs by agar well diffusion method; conditions: read-out: DIZ
Klebsiella pneumoniae [25] = assay: Antibacterial activity against Klebsiella pneumoniae at 200 ug/ml after 24 hrs by agar well diffusion method; conditions: read-out: DIZ
Klebsiella pneumoniae [26] = assay: Antibacterial activity against Klebsiella pneumoniae at 50 ug/ml after 24 hrs by agar well diffusion method; conditions: read-out: DIZ
Rhizoctonia solani [27] = assay: Antifungal activity against Rhizoctonia solani at 100 ug/ml after 72 hrs by agar well diffusion method; conditions: read-out: DIZ
Aspergillus flavus [28] = assay: Antifungal activity against Aspergillus flavus at 200 ug/ml after 72 hrs by agar well diffusion method; conditions: read-out: DIZ
Bacillus subtilis [29] = assay: Antibacterial activity against Bacillus subtilis at 200 ug/ml after 24 hrs by agar well diffusion method; conditions: read-out: DIZ
Staphylococcus aureus [30] = assay: Antibacterial activity against Staphylococcus aureus ATCC 6538 at 500 ug/ml after 24 hrs by agar well diffusion method; conditions: ATCC 6538, 24 h, read-out: DIZ
Aspergillus niger [31] = assay: Antifungal activity against Aspergillus niger at 100 ug/ml after 72 hrs by agar well diffusion method; conditions: read-out: DIZ
Bacillus subtilis [32] = assay: Antibacterial activity against Bacillus subtilis at 50 ug/ml after 24 hrs by agar well diffusion method; conditions: read-out: DIZ
Staphylococcus aureus [33] = assay: Antibacterial activity against Staphylococcus aureus ATCC 6538 at 100 ug/ml after 24 hrs by agar well diffusion method; conditions: ATCC 6538, 24 h, read-out: DIZ
Aspergillus niger [34] = assay: Antifungal activity against Aspergillus niger after 72 hrs by agar well diffusion method
Klebsiella pneumoniae [35] = assay: Antibacterial activity against Klebsiella pneumoniae at 500 ug/ml after 24 hrs by agar well diffusion method; conditions: read-out: DIZ
Aspergillus flavus [36] = assay: Antifungal activity against Aspergillus flavus after 72 hrs by agar well diffusion method
Bacillus subtilis [37] = assay: Antibacterial activity against Bacillus subtilis at 300 ug/ml after 24 hrs by agar well diffusion method; conditions: read-out: DIZ
Rhizoctonia solani [38] = assay: Antifungal activity against Rhizoctonia solani at 500 ug/ml after 72 hrs by agar well diffusion method; conditions: read-out: DIZ
Klebsiella pneumoniae [39] = assay: Antibacterial activity against Klebsiella pneumoniae at 100 ug/ml after 24 hrs by agar well diffusion method; conditions: read-out: DIZ
Aspergillus flavus [40] = assay: Antifungal activity against Aspergillus flavus at 300 ug/ml after 72 hrs by agar well diffusion method; conditions: read-out: DIZ
Escherichia coli [41] = assay: Antibacterial activity against Escherichia coli ATCC 8739 at 500 ug/ml after 24 hrs by agar well diffusion method; conditions: ATCC 8739, 24 h, read-out: DIZ
Rhizoctonia solani [42] = assay: Antifungal activity against Rhizoctonia solani at 50 ug/ml after 72 hrs by agar well diffusion method; conditions: read-out: DIZ
Bacillus subtilis [43] = assay: Antibacterial activity against Bacillus subtilis after 24 hrs by agar well diffusion method
Staphylococcus aureus [44] = assay: Antibacterial activity against Staphylococcus aureus ATCC 6538 after 24 hrs by agar well diffusion method; conditions: ATCC 6538, 24 h
Fusarium oxysporum [45] = assay: Antifungal activity against Fusarium oxysporum at 300 ug/ml after 72 hrs by agar well diffusion method; conditions: read-out: DIZ
Rhizoctonia solani [46] = assay: Antifungal activity against Rhizoctonia solani at 200 ug/ml after 72 hrs by agar well diffusion method; conditions: read-out: DIZ
Klebsiella pneumoniae [47] = assay: Antibacterial activity against Klebsiella pneumoniae after 24 hrs by agar well diffusion method
Aspergillus flavus [48] = assay: Antifungal activity against Aspergillus flavus at 500 ug/ml after 72 hrs by agar well diffusion method; conditions: read-out: DIZ

**Q.** With `CCn1cc(C=C2C(=O)OC(C)(C)OC2=O)c2cc([N+](=O)[O-])ccc21` as the molecule, how does the zone of inhibition at 500 µg/mL (Bacillus subtilis [1]) read?
**A.** 22 mm

**Q.** And the zone of inhibition at 100 µg/mL (Escherichia coli [2])?
**A.** 13 mm

**Q.** What about the zone of inhibition at 50 µg/mL (Escherichia coli [3]) of the same molecule?
**A.** 8 mm

**Q.** And the zone of inhibition at 500 µg/mL (Fusarium oxysporum [4])?
**A.** 29 mm

**Q.** And the zone of inhibition at 100 µg/mL (Bacillus subtilis [5])?
**A.** 9 mm

**Q.** And the zone of inhibition at 200 µg/mL (Aspergillus niger [6])?
**A.** 14 mm

**Q.** What about the zone of inhibition at 300 µg/mL (Aspergillus niger [7]) of the same molecule?
**A.** 18 mm

**Q.** What about the zone of inhibition at 50 µg/mL (Aspergillus niger [8]) of the same molecule?
**A.** 6 mm

**Q.** What about the zone of inhibition at 200 µg/mL (Staphylococcus aureus [9]) of the same molecule?
**A.** 13 mm

**Q.** And the zone of inhibition at 100 µg/mL (Aspergillus flavus [10])?
**A.** 9 mm

**Q.** What about the MIC (Escherichia coli [11]) of the same molecule?
**A.** 15 µg/mL (≈ 43.6 µM)

**Q.** And the MIC (Rhizoctonia solani [12])?
**A.** 35 µg/mL (≈ 102 µM)

**Q.** And the zone of inhibition at 50 µg/mL (Fusarium oxysporum [13])?
**A.** 7 mm

**Q.** And the zone of inhibition at 300 µg/mL (Staphylococcus aureus [14])?
**A.** 16 mm

**Q.** What about the zone of inhibition at 200 µg/mL (Escherichia coli [15]) of the same molecule?
**A.** 15 mm

**Q.** What about the zone of inhibition at 50 µg/mL (Staphylococcus aureus [16]) of the same molecule?
**A.** 6 mm

**Q.** And the zone of inhibition at 300 µg/mL (Rhizoctonia solani [17])?
**A.** 21 mm

**Q.** What about the zone of inhibition at 300 µg/mL (Escherichia coli [18]) of the same molecule?
**A.** 20 mm

**Q.** And the zone of inhibition at 200 µg/mL (Fusarium oxysporum [19])?
**A.** 16 mm

**Q.** And the zone of inhibition at 50 µg/mL (Aspergillus flavus [20])?
**A.** 4 mm

**Q.** What about the MIC (Fusarium oxysporum [21]) of the same molecule?
**A.** 35 µg/mL (≈ 102 µM)

**Q.** What about the zone of inhibition at 300 µg/mL (Klebsiella pneumoniae [22]) of the same molecule?
**A.** 23 mm

**Q.** And the zone of inhibition at 100 µg/mL (Fusarium oxysporum [23])?
**A.** 12 mm

**Q.** What about the zone of inhibition at 500 µg/mL (Aspergillus niger [24]) of the same molecule?
**A.** 25 mm

**Q.** What about the zone of inhibition at 200 µg/mL (Klebsiella pneumoniae [25]) of the same molecule?
**A.** 18 mm

**Q.** And the zone of inhibition at 50 µg/mL (Klebsiella pneumoniae [26])?
**A.** 9 mm

**Q.** What about the zone of inhibition at 100 µg/mL (Rhizoctonia solani [27]) of the same molecule?
**A.** 12 mm

**Q.** And the zone of inhibition at 200 µg/mL (Aspergillus flavus [28])?
**A.** 12 mm

**Q.** What about the zone of inhibition at 200 µg/mL (Bacillus subtilis [29]) of the same molecule?
**A.** 11 mm

**Q.** What about the zone of inhibition at 500 µg/mL (Staphylococcus aureus [30]) of the same molecule?
**A.** 26 mm

**Q.** What about the zone of inhibition at 100 µg/mL (Aspergillus niger [31]) of the same molecule?
**A.** 10 mm

**Q.** What about the zone of inhibition at 50 µg/mL (Bacillus subtilis [32]) of the same molecule?
**A.** 4 mm

**Q.** What about the zone of inhibition at 100 µg/mL (Staphylococcus aureus [33]) of the same molecule?
**A.** 10 mm

**Q.** And the MIC (Aspergillus niger [34])?
**A.** 40 µg/mL (≈ 116 µM)

**Q.** And the zone of inhibition at 500 µg/mL (Klebsiella pneumoniae [35])?
**A.** 32 mm

**Q.** What about the MIC (Aspergillus flavus [36]) of the same molecule?
**A.** 40 µg/mL (≈ 116 µM)

**Q.** And the zone of inhibition at 300 µg/mL (Bacillus subtilis [37])?
**A.** 14 mm

**Q.** And the zone of inhibition at 500 µg/mL (Rhizoctonia solani [38])?
**A.** 29 mm

**Q.** What about the zone of inhibition at 100 µg/mL (Klebsiella pneumoniae [39]) of the same molecule?
**A.** 14 mm

**Q.** What about the zone of inhibition at 300 µg/mL (Aspergillus flavus [40]) of the same molecule?
**A.** 15 mm

**Q.** What about the zone of inhibition at 500 µg/mL (Escherichia coli [41]) of the same molecule?
**A.** 31 mm

**Q.** And the zone of inhibition at 50 µg/mL (Rhizoctonia solani [42])?
**A.** 7 mm

**Q.** And the MIC (Bacillus subtilis [43])?
**A.** 30 µg/mL (≈ 87.1 µM)

**Q.** And the MIC (Staphylococcus aureus [44])?
**A.** 25 µg/mL (≈ 72.6 µM)

**Q.** And the zone of inhibition at 300 µg/mL (Fusarium oxysporum [45])?
**A.** 21 mm

**Q.** What about the zone of inhibition at 200 µg/mL (Rhizoctonia solani [46]) of the same molecule?
**A.** 16 mm

**Q.** What about the MIC (Klebsiella pneumoniae [47]) of the same molecule?
**A.** 15 µg/mL (≈ 43.6 µM)

**Q.** What about the zone of inhibition at 500 µg/mL (Aspergillus flavus [48]) of the same molecule?
**A.** 23 mm
